The results in this text go back to US9932327B2, “Rohitukine analogs as cyclin-dependent kinase inhibitors and a process for the preparation thereof” (COUNCIL OF SCIENTIFIC AND INDUSTRIAL RESEARCH, priority 2013, dated 2018).

Holding throughout (format): cell-based
The test system of one assay is HL-60 (Leukemia). The experiment in a line: Cytotoxicity, MTT assay, HL-60. Particulars: Homo sapiens; for inhibition at 10 µM: read-out: Cell Growth Inhibition (%). As for the experimental part: (§1) Compounds proposed in the present invention were evaluated for their cytotoxic effect against panel of six cancer cell line viz. HL-60 (Leukemia), PC-3 (Prostate), A-375 (Melanoma), MIAPaCa-2 (pancreatic), MCF-7 (Breast) and Caco-2 (Colon) using MTT assay. In each well of a 96-well plate, 3×10^3 cells were grown in 100 μL of medium. After 24 h, each test molecules were added to achieve a final concentration of 10 to 0.01 μmol/L, respectively. After 48 h of treatment, 20 μL of 2.5 mg/mL MTT (Organics Research, Inc.) solution in phosphate buffer saline was added to each well. After 48 h, supernatant was removed and formazan crystals were dissolved in 200 μL of DMSO. Absorbance was then measured at 570 nm using an absorbance plate reader (Bio-Rad Microplate Reader). Data are expressed as the percentage of viable cells in treated relative to non-treated conditions.
For orientation: Formazan colour is commonly taken as a measure of viable cells.

The subject of a further assay is PC-3 (Prostate). The experiment in a line: Cytotoxicity, MTT assay, PC-3. Conditions: for inhibition at 10 µM: read-out: Cell Growth Inhibition (%). As for the experimental part: as §1
For the next assay, the system named is MIAPaCa-2 (pancreatic). Nature of the assay: Cytotoxicity, MTT assay, MIAPaCa-2. Particulars: Homo sapiens, MIA PaCa-2, read-out: Cell Growth Inhibition (%). As for the experimental part:
as §1

Another assay relates to A-375 (Melanoma). The experiment in a line: Cytotoxicity, MTT assay, A-375. Conditions: Homo sapiens; for inhibition at 10 µM: read-out: Cell Growth Inhibition (%). As for the experimental part:
as §1

In the next assay the test system is Caco-2 (Colon). The experiment in a line: Cytotoxicity, MTT assay, Caco-2. Conditions: Homo sapiens; for inhibition at 10 µM: read-out: Cell Growth Inhibition (%). As for the experimental part:
as §1

The next assay deals with MCF-7 (Breast). The experiment in a line: Cytotoxicity, MTT assay, MCF-7. Conditions: Homo sapiens; for inhibition at 10 µM: MCF7, 10 μM, read-out: Cell Growth Inhibition (%); for IC50: MCF7. As for the experimental part: as §1

In general, inhibition refers to the relative decrease from the control value, in per cent. Regarding `Cc1cc(=O)c2c(O)cc(OCc3ccccc3)c(C3CCN(C)CC3O)c2o1` (stereo not shown) [Compound 2, 7-(benzyloxy)-5-hydroxy-8-(3-hydroxy-1-methylpiperidin-4-yl)-2-methyl-4H-chromen-4-one], the inhibition at 10 µM in the assay on HL-60 (Leukemia) stood at 24.3%; in the assay on PC-3 (Prostate), 41%; in the assay with MIAPaCa-2 (pancreatic), 13.8%; with A-375 (Melanoma), 27.8%; in the assay on Caco-2 (Colon), 17.6%; in the assay with MCF-7 (Breast), 1.44%.

On to `COc1ccc(COc2cc(O)c3c(=O)cc(C)oc3c2C2CCN(C)CC2O)cc1` (stereo not shown) [Compound 3, 7-(4-Methoxybenzyloxy)-5-hydroxy-8-(3-hydroxy-1-methylpiperidin-4-yl)-2-methyl-4H-chromen-4-one], for which the inhibition at 10 µM was found to be 22.8% with HL-60 (Leukemia); 35.2% with PC-3 (Prostate); 15.7% in the assay with MIAPaCa-2 (pancreatic); 8.43% in the assay on Caco-2 (Colon); 15.6% with MCF-7 (Breast).

For `Cc1cc(=O)c2c(O)cc(OCc3ccc(Br)cc3)c(C3CCN(C)CC3O)c2o1` (stereo not shown) [Compound 4, 7-(4-Bromobenzyloxy)-5-hydroxy-8-(3-hydroxy-1-methylpiperidin-4-yl)-2-methyl-4H-chromen-4-one], the inhibition at 10 µM in the assay on HL-60 (Leukemia) turned out to be 26.9%; in the assay on PC-3 (Prostate) it was 17.1%; in the assay on MIAPaCa-2 (pancreatic), 13.2%; in the assay with A-375 (Melanoma), 45.5%; with Caco-2 (Colon) it was 13%; in the assay with MCF-7 (Breast), 14%.

On to `Cc1cc(=O)c2c(O)cc(OCc3ccco3)c(C3CCN(C)CC3O)c2o1` (stereo not shown) [Compound 5, 7-((Furan-2-yl)methoxy)-5-hydroxy-8-(3-hydroxy-1-methylpiperidin-4-yl)-2-methyl-4H-chromen-4-one], for which the inhibition at 10 µM with HL-60 (Leukemia) was determined as 31.9%; with PC-3 (Prostate), 14.1%; in the assay on MIAPaCa-2 (pancreatic) it was 6.61%; with A-375 (Melanoma), 36.8%; in the assay on Caco-2 (Colon), 16.9%; in the assay on MCF-7 (Breast), 5.73%.

A word on the IC50: it is the concentration at which inhibition is half-maximal. On to `Cc1cc(=O)c2c(O)cc(OCc3cccs3)c(C3CCN(C)CC3O)c2o1` (stereo not shown) [Compound 6, 7-((Thiophen-2-yl)methoxy)-5-hydroxy-8-(3-hydroxy-1-methylpiperidin-4-yl)-2-methyl-4H-chromen-4-one], for which the inhibition at 10 µM was 22.2% in the assay on HL-60 (Leukemia); 22.8% in the assay on PC-3 (Prostate); 13.2% with MIAPaCa-2 (pancreatic); 53.8% in the assay with A-375 (Melanoma); 33.3% in the assay with Caco-2 (Colon); 19.8% with MCF-7 (Breast). The molecule further registered an IC50 in the assay with A-375 (Melanoma) of 8 µM.

On to `Cc1cc(=O)c2c(O)cc(OC/C=C/c3ccccc3)c(C3CCN(C)CC3O)c2o1` (stereo not shown) [Compound 7, 7-(Cinnamyloxy)-5-hydroxy-8-(3-hydroxy-1-methylpiperidin-4-yl)-2-methyl-4H-chromen-4-one], for which the inhibition at 10 µM in the assay on HL-60 (Leukemia) amounted to 21%; in the assay with PC-3 (Prostate), 18.3%; in the assay on MIAPaCa-2 (pancreatic), 11.2%; in the assay with A-375 (Melanoma), 21.8%; with Caco-2 (Colon), 9.49%; in the assay on MCF-7 (Breast) it was 7.02%.

Regarding `Cc1cc(=O)c2c(O)cc(OCc3ccc([N+](=O)[O-])cc3)c(C3CCN(C)CC3O)c2o1` (stereo not shown) [Compound 8, 7-(4-Nitrobenzyloxy)-5-hydroxy-8-(3-hydroxy-1-methylpiperidin-4-yl)-2-methyl-4H-chromen-4-one], the inhibition at 10 µM with HL-60 (Leukemia) was found to be 14.4%; with PC-3 (Prostate) it was 23%; in the assay with MIAPaCa-2 (pancreatic) it was 12.4%; in the assay with A-375 (Melanoma), 37.5%; with Caco-2 (Colon), 13.6%; in the assay with MCF-7 (Breast) it was 39.3%.

With `Cc1cc(=O)c2c(O)cc(OCc3ccccc3Br)c(C3CCN(C)CC3O)c2o1` (stereo not shown) [Compound 9, 7-(2-Bromobenzyloxy)-5-hydroxy-8-(3-hydroxy-1-methylpipetidin-4-yl)-2-methyl-4H-chromen-4-one], the inhibition at 10 µM in the assay on HL-60 (Leukemia) is 3.05%; in the assay on PC-3 (Prostate), 31.7%; with MIAPaCa-2 (pancreatic), 29.7%; with A-375 (Melanoma), 58.6%; with Caco-2 (Colon), 35.1%; with MCF-7 (Breast) it was 45.4%. Moreover, inhibition with A-375 (Melanoma) was half-maximal at 12 µM (IC50).

Molecule `Cc1cc(=O)c2c(O)cc(OCc3nc4ccccc4[nH]3)c(C3CCN(C)CC3O)c2o1` (stereo not shown) [Compound 10, 7-((1H-Benzo[d]imidazol-2-yl)methoxy)-5-hydroxy-8-(3-hydroxy-1-methylpiperidin-4-yl)-2-methyl-4H-chromen-4-one] registered a 50% inhibitory concentration (IC50) in the assay with HL-60 (Leukemia) of 8 µM.

As to `Cc1cc(=O)c2c(O)cc(OC(=O)c3ccco3)c(C3CCN(C)CC3O)c2o1` (stereo not shown) [Compound 11, 5-Hydroxy-8-(3-hydroxy-1-methylpiperidin-4-yl)-2-methyl-4-oxo-4H-chromen-7-yl furan-2-carboxylate], the inhibition at 10 µM amounted to 80.2% with HL-60 (Leukemia); 15.1% with PC-3 (Prostate); 16.1% in the assay on MIAPaCa-2 (pancreatic); 11.2% in the assay with A-375 (Melanoma); 1.96% with Caco-2 (Colon); 2.86% in the assay with MCF-7 (Breast).

Take `Cc1cc(=O)c2c(O)cc(OC(=O)c3ccccc3C)c(C3CCN(C)CC3O)c2o1` (stereo not shown) [Compound 12, 5-Hydroxy-8-(3-hydroxy-1-methylpiperidin-4-yl)-2-methyl-4-oxo-4H-chromen-7-yl 2-methylbenzoate]: the inhibition at 10 µM in the assay on HL-60 (Leukemia) was determined as 12.8%; with PC-3 (Prostate), 18.6%; in the assay with MIAPaCa-2 (pancreatic) it was 7.19%; in the assay on A-375 (Melanoma), 42%; in the assay with Caco-2 (Colon) it was 6.53%; in the assay with MCF-7 (Breast), 13.4%.

For `Cc1oc2c(C3CCN(C)CC3O)c(O)cc(O)c2c(=O)c1C(O)c1ccc([N+](=O)[O-])cc1` (stereo not shown) [Compound 13, 5,7-Dihydroxy-3-(hydroxy(4-nitrophenyl)methyl)-8-(3-hydroxy-1-methylpiperidin-4-yl)-2-methyl-4H-chromen-4-one], the inhibition at 10 µM was found to be 0% in the assay on HL-60 (Leukemia); 23.8% in the assay with PC-3 (Prostate); 2.48% in the assay with MIAPaCa-2 (pancreatic); 35.9% in the assay on A-375 (Melanoma); 5.08% in the assay with Caco-2 (Colon); 4.03% with MCF-7 (Breast).

As for `Cc1oc2c(C3CCN(C)CC3O)c(O)cc(O)c2c(=O)c1C(O)c1c(Cl)cccc1Cl` (stereo not shown) [Compound 20, 3-((2,6-dichlorophenyl)(hydroxy)methyl)-5,7-dihydroxy-8-(3-hydroxy-1-methylpiperidin-4-yl)-2-methyl-4H-chromen-4-one], the half-inhibitory concentration (IC50) in the assay on PC-3 (Prostate) stood at 5 µM.

Regarding `CN1CCC(c2c(O)cc(O)c3c(=O)cc(/C=C/c4ccccc4)oc23)C(O)C1` (stereo not shown) [Compound 31, 2-styryl-5,7-dihydroxy-8-(3-hydroxy-1-methylpiperidin-4-yl)-4H-chromen-4-one], the half-maximal inhibitory concentration (IC50) in the assay on HL-60 (Leukemia) stood at 1 µM; with PC-3 (Prostate), 58 µM; with A-375 (Melanoma) it was 4.4 µM; in the assay on Caco-2 (Colon), 3.7 µM; in the assay with MCF-7 (Breast), 31 µM.

As to `CN1CCC(c2c(O)cc(O)c3c(=O)cc(/C=C/c4ccc(Cl)cc4)oc23)C(O)C1` (stereo not shown) [Compound 32, 2-(4-Chlorostyryl)-5,7-dihydroxy-8-(3-hydroxy-1-methylpiperidin-4-yl)-4H-chromen-4-one], the half-inhibitory concentration (IC50) in the assay on HL-60 (Leukemia) was 8 µM; with PC-3 (Prostate), 31 µM; in the assay with A-375 (Melanoma) it was 30 µM; with Caco-2 (Colon), 5.6 µM; with MCF-7 (Breast), 49 µM.
